From patent US12000825B2, “Method of selecting stem cells having ability to produce extracellular vesicles with high efficiency using activation of protease-activated receptor-mediated signaling pathways” (SAMSUNG LIFE PUBLIC WELFARE FOUNDATION, priority 2019, dated 2024) come the findings set out here.

Entries after “also recorded” stand apart in the source; their conditions may differ.

Assay [1] concerns Human umbilical cord blood-derived mesenchymal stem cells (MSCs). Nature of the assay: Isolation and quantification of extracellular vesicles (NanoSight). Type of assay: cell-based. The settings on record: for production of EVs: 6 hours, FIG. 1A. Here is the method:
(§1) To pretreat the umbilical cord blood-derived mesenchymal stem cells with thrombin, first, the mesenchymal stem cells were cultured in α-MEM (Gibco, Grand Island, NY, USA) supplemented with 10% (v/v) fetal bovine serum (FBS, Gibco), 100 units/mL penicillin, and 100 μg/mL streptomycin (Invitrogen, Carlsbad, CA, USA) under standard culture conditions. When the cells reached approximately 90% confluency in a culture plate, the cells were washed three times with phosphate buffered saline (PBS) to remove contaminated FBS-derived exosomes, and were then incubated in new serum-free α-MEM supplemented with human recombinant thrombin (1 U/mL, 2 U/mL, and 4 U/mL; Sigma-Aldrich, St. Louis, MO, USA) for 6 hours. After the medium was collected, about 2×10^6 cells per 100 mm culture dish was counted using a Luna-FL™ system (Logos Biosystems, Anyang-si, Korea).
To isolate extracellular vesicles (hereinafter, referred to as EVs) secreted by the umbilical cord blood-derived mesenchymal stem cells pretreated with thrombin according to the method of Example 1-1, an experiment was conducted according to the following processes. Specifically, the above recovered medium was centrifuged at 3,000 rpm and 4° C. for 30 minutes to remove cell debris, and then centrifuged at 100,000 rpm and 4° C. for 120 minutes to precipitate EVs. Then, the precipitated pellet was washed twice, re-suspended in sterile PBS, and stored at −80° C. until use.
The distribution of EVs was analyzed by measuring the rate of Brownian motion using NanoSight (NanoSight NS300; Malvern, Worcestershire, UK), which is equipped with fast video capture and particle-tracking software. The obtained EVs were re-suspended in PBS (500 μl, 1 mg/mL total protein), and size and polydispersity thereof were measured. In addition, to quantify the production of EVs by a single cell, cells were counted using a LUNA-FL system according to the manufacturer's protocol using the medium recovered above. The number of EVs produced by a single cell was calculated by dividing the total number of EVs by the number of cells.

For assay [2] the test system is unchanged. Nature of the assay: Bioplex assay / ELISA of proteins in EVs (VEGF, angiogenin, angiopoietin-1, HGF). The assay is classed as cell-based. Here is the method:
as §1
To analyze the cytokine levels of EVs by ELISA, an experiment was conducted using the following method. Specifically, a homogenate of isolated EVs was added to a well containing 0.1 mL of lysis buffer in an ELISA kit. Subsequently, proteins in EVs were quantified using the Bradford method, and then 1 μg of protein was loaded into each well. Thereafter, the levels of angiogenin, angiopoietin-1, VEGF, and HGF, which are present in EVs, were quantified using the Fluorokine® MAP Human Angiogenesis Custom Premix Kit A (R & D Systems, Minneapolis, MN, USA).

For a further assay, the system named is Rab-5 and EEA-1. Nature of the assay: Immunoblot of early endosome markers. The assay is classed as cell-based, human. Here is the method: (§2) Umbilical cord blood-derived mesenchymal stem cells and EVs were lysed by adding an equal volume of RIPA buffer (Sigma-Aldrich, St. Louis, MO, USA). The protein contents of the lysates were quantified using the Bradford method, and samples containing 10 μg of proteins were mixed with loading buffer containing β-mercaptoethanol, boiled for 10 minutes, and separated according to size by 12% SDS-polyacrylamide gel electrophoresis (SDS-PAGE). Subsequently, the separated proteins were transferred to nitrocellulose membranes, and then a 5% bovine serum albumin (BSA) solution was prepared with 0.5% Tween-20-containing 1×PBS-T, the membranes were blocked therewith at room temperature, followed by treatment with primary antibodies and incubation at room temperature for 1 hour. After incubation, the membranes were washed with 1×PBS-T, followed by incubation with anti-mouse or anti-rabbit horseradish peroxidase-conjugated immunoglobulin G (1:2000) secondary antibodies while being stirred at room temperature for 1 hour. Subsequently, after washing with PBS-T, protein bands were detected using an ECL Select chemiluminescence reagent (GE Healthcare Life Sciences, Piscataway, NJ, USA), and band images were acquired with X-ray films.
(In general: In western blotting, separated proteins are transferred to a membrane and probed.)

The subject of assay [3] is ERK1/2 and AKT signaling pathways. The experiment in a line: Immunoblot of ERK1/2 and AKT phosphorylation. The assay is classed as cell-based, human. Here is the method:
as §2

Assay [4] deals with Human umbilical cord blood-derived mesenchymal stem cells (MSCs). The experiment in a line: Observation of EVs by SEM and TEM. Type of assay: cell-based. The settings on record: thrombin-pretreated vs not treated, FIG. 1D. Here is the method: EVs (5 μl) were fixed with 2% glutaraldehyde, loaded on 200-mesh formvar/carbon-coated electron microscopy grids (Electron Microscopy Sciences, Washington, PA, USA), and incubated for 10 minutes. Subsequently, the EVs were washed with filtered distilled water and stained with 2% uranyl acetate in water for 1 minute. Thereafter, the stained EVs were observed using a Tecnai Spirit G2 transmission electron microscope (FEI, Hillsboro, OR, USA) operating at 120 kV, and then an image thereof was acquired.
Meanwhile, to observe isolated EVs using a scanning electron microscope, EVs were fixed in 2.5% glutaraldehyde and loaded on a polycarbonate membrane. Next, the membrane was washed once with PBS and water and then dehydrated with acetone. Subsequently, the acetone was removed by critical point drying using liquid carbon dioxide. Samples were mounted on aluminum stubs with carbon tape and mounted on an SEM stub. After sputter coating with 3-5 nm platinum, the samples were observed using a scanning electron microscope (Zeiss Auriga Workstation, Oberkochen, Germany) and images thereof were acquired.

For assay [5] the test system is unchanged. Nature of the assay: Early endosome labeling (CellLight Early Endosomes-GFP). The assay is classed as cell-based. Here is the method: Early endosomes were labeled using CellLight® reagent-green fluorescent protein (GFP), BacMam 2.0 (Thermo Fisher Scientific, San Jose, CA, USA) according to the manufacturer's instructions. Briefly, mesenchymal stem cells were dispensed in a 12-well plate at a density of 1.5×10^4 per well, and after cells were attached, BacMam 2.0 reagent was added at a concentration of 40 particles per cell (PPC). Next, to measure Rab5α-GFP expression, early endosomes were labeled using CellLight® early endosomes-GFP, BacMam 2.0. Thereafter, to estimate the number of GFP-labeled endosomes, the optical density of green immunofluorescence was measured using ImageJ (National Institutes of Health, Bethesda, MD, USA).

Setting [6] is: compared to no thrombin, in proportion to thrombin concentration.

On to thrombin, for which the “amount of produced extracellular vesicles, increase” value in assay [1] (setting [6]) is recorded as at least 5 fold. Moreover, the “production of EVs” value in assay [1] (thrombin 1-4 U/mL) is “increased in a thrombin concentration-dependent manner”; in assay [1] (thrombin 2 U/mL and 4 U/mL), “significantly increased”. Besides, the “number of isolated EVs” value in assay [1] (thrombin-pretreated vs not treated, FIG. 1E) was “greater number”. For the same compound, in assay [2] (setting [6]), the “levels of proteins in extracellular vesicles, increase” value is at least 2 fold. In assay [2] (thrombin 2 U/mL and 4 U/mL vs not treated, FIG. 1B), the “levels of VEGF, angiogenin, angiopoietin-1 and HGF in EVs” value is on record as “significantly increased”. The “expression levels of early endosome markers Rab-5 and EEA-1” value in the assay on Rab-5 and EEA-1 (thrombin treatment vs none, FIG. 3A) is “significantly increased”. In addition, the “expression of non-phosphorylated ERK1/2 and AKT” value in assay [3] (thrombin treatment, not statistically significant, FIG. 3B) is reported as “tended to increase slightly”. Moreover, the “expression of pERK1/2 and pAKT (phosphorylation of ERK1/2 and AKT)” value in assay [3] (thrombin-pretreated vs not treated, FIG. 3B) was “significantly increased”. Moreover, in assay [4], the “EVs observed by SEM/TEM” value is recorded as “more EVs were observed”. The “level of early endosomes” value in assay [5] (thrombin-pretreated vs naive, FIG. 1C) is “significantly increased; also recorded: significantly high level”.

As for `CC(C)c1ccc(Cn2ccc3c4c(N)nc(NC5CC5)nc4ccc32)cc1.Cl.Cl` [SCH79797, N3-cyclopropyl-7-[[4-(1-methylethyl)phenyl]methyl]-7H-pyrrolo[3,2-f]quinazolin-1,3-diamine dihydrochloride, reference compound], the “increase in the number of extracellular vesicles by thrombin, comparison” value in assay [1] (compared to transfection with PAR3 siRNA, FIGS. 5B and 5C) is recorded as “inhibited at a higher level”. Moreover, the “increase in the number of extracellular vesicles by thrombin treatment” value in assay [1] (thrombin-pretreated MSC culture media, SCH79797 1 μM, FIGS. 5B and 5C) is “significantly inhibited”. Further, the “increase in the levels of proteins in EVs, comparison” value in assay [2] (compared to transfection with PAR3 siRNA, FIG. 5D) is listed as “inhibited at a higher level”. Moreover, the “increase in the levels of VEGF, angiogenin, angiopoietin-1 and HGF in EVs” value in assay [2] (thrombin-pretreated MSCs, SCH79797 1 μM, FIG. 5D) is given as “significantly inhibited”. Moreover, the “expression levels of Rab-5 and EEA-1, comparison” value in the assay with Rab-5 and EEA-1 (thrombin-pretreated MSCs, compared to the PAR3 siRNA-treated group, FIG. 4A) was “further reduced”. The “expression levels of Rab-5 and EEA-1” value in the assay with Rab-5 and EEA-1 (thrombin-pretreated MSCs, compared to thrombin alone, SCH79797 1 μM, FIG. 4A) is reported as “significantly reduced”. Besides, in assay [3] (compared to PAR-3-specific siRNA treatment, FIG. 4B), the “increase in phosphorylation of ERK1/2 and AKT by thrombin, comparison” value is given as “inhibited at a more significant level”. Besides, in assay [3] (thrombin-pretreated MSCs, SCH79797 1 μM, FIG. 4B), the “increase in phosphorylation of ERK1/2 and AKT by thrombin pretreatment” value is “significantly inhibited”. Also, the “increase in the number of early endosomes by thrombin, comparison” value in assay [5] (compared to transfection with PAR3 siRNA, FIG. 5A) is given as “more significantly inhibited”. Besides, in assay [5] (thrombin-pretreated MSCs, SCH79797 1 μM, FIG. 5A), the “increase in the number of early endosomes by thrombin treatment” value is reported as “significantly inhibited”.
